This note sets out measurements from ChEMBL document CHEMBL5291721, “A preclinical secondary pharmacology resource illuminates target-adverse drug reaction associations of marketed drugs” (Nat Commun, 2023).

The target of experiment [1] is T1, Adenosine receptor A3 (Homo sapiens, UniProt P0DMS8).
T1 sequence (P0DMS8 whole entry): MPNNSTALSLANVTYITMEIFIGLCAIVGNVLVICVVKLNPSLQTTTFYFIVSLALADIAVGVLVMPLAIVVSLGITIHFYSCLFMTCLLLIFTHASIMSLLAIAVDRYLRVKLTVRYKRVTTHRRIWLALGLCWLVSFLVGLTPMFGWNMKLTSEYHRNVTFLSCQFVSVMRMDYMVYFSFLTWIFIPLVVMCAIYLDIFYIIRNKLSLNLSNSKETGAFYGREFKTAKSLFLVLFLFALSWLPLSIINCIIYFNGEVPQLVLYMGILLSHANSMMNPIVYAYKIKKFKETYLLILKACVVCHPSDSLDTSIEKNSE

Experiment [2] deals with T2, Alpha-1A adrenergic receptor (Homo sapiens, UniProt P35348).
T2 sequence (P35348 whole entry): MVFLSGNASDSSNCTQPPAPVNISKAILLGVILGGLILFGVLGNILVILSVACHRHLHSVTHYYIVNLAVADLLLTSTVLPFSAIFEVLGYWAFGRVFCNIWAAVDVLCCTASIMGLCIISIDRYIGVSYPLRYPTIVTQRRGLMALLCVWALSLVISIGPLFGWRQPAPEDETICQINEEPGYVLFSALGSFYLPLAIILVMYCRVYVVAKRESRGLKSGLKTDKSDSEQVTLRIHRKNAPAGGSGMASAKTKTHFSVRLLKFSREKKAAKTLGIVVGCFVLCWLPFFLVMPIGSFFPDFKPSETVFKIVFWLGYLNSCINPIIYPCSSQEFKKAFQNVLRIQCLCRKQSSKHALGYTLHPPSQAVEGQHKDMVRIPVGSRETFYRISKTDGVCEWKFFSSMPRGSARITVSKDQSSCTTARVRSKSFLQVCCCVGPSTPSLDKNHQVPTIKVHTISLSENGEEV
Type of experiment: functional, cell-based.

Experiment [3] has as its target T3, Alpha-2A adrenergic receptor (Homo sapiens, UniProt P08913).
T3 sequence (P08913 whole entry): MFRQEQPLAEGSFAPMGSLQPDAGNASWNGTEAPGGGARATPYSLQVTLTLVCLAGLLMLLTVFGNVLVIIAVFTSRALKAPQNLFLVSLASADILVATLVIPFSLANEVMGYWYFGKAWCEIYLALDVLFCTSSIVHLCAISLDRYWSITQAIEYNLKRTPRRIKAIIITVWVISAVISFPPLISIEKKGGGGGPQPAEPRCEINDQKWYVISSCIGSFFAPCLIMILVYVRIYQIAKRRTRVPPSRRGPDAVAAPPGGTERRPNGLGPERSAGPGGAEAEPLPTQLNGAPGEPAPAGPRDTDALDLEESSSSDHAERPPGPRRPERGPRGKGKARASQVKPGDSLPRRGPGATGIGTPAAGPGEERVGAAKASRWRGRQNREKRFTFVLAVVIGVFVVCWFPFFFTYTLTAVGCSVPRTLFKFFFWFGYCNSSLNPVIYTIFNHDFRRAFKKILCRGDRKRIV
Type of experiment: functional, cell-based.

The target in experiment [4] is Sodium-dependent noradrenaline transporter (Homo sapiens, UniProt P23975).
Experiment [5] concerns the target Melanocortin receptor 3 (Homo sapiens, UniProt P41968).
The target in experiment [6] is T4, Adenosine receptor A1 (Homo sapiens, UniProt P30542).
T4 sequence (P30542 whole entry): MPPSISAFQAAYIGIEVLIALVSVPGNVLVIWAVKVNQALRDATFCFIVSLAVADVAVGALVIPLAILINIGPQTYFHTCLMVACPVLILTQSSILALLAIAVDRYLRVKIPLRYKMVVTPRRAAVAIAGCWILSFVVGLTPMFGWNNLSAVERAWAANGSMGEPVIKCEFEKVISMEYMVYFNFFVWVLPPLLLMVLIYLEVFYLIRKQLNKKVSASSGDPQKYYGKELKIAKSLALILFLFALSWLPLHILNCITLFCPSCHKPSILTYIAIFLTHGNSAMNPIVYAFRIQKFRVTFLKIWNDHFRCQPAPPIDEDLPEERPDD

Experiment [7] addresses T5, 5-hydroxytryptamine receptor 3A (Homo sapiens, UniProt P46098).
T5 sequence (P46098 whole entry): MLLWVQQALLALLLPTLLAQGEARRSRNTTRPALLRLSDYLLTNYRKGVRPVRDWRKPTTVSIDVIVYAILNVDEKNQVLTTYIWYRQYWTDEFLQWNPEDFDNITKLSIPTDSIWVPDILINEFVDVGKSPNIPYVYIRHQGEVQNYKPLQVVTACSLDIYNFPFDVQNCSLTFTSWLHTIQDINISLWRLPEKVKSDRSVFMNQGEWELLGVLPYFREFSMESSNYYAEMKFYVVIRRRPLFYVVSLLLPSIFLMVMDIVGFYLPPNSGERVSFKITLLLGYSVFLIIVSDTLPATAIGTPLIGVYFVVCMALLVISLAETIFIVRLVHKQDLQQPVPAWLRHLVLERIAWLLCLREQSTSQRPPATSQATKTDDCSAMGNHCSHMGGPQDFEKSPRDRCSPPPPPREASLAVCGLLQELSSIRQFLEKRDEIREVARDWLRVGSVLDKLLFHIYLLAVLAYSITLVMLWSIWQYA
Type of experiment: functional.

For experiment [8], the target named is T2, Alpha-1A adrenergic receptor. Type of experiment: functional, cell-based. This is another data set of the same source.

SMILES strings stand for the structures.
Note: assay procedure not described here.

Chain of Melanocortin receptor 3 (P41968 whole entry): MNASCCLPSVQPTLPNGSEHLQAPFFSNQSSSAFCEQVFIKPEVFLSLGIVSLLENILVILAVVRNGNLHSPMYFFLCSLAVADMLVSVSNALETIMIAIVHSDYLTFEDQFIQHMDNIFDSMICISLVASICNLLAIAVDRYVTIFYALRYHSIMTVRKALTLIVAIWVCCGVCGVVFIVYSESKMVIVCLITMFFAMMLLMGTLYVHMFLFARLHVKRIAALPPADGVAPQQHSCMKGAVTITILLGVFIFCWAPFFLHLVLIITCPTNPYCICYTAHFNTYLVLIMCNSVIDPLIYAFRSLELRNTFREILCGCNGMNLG
Chain of Sodium-dependent noradrenaline transporter (P23975 whole entry): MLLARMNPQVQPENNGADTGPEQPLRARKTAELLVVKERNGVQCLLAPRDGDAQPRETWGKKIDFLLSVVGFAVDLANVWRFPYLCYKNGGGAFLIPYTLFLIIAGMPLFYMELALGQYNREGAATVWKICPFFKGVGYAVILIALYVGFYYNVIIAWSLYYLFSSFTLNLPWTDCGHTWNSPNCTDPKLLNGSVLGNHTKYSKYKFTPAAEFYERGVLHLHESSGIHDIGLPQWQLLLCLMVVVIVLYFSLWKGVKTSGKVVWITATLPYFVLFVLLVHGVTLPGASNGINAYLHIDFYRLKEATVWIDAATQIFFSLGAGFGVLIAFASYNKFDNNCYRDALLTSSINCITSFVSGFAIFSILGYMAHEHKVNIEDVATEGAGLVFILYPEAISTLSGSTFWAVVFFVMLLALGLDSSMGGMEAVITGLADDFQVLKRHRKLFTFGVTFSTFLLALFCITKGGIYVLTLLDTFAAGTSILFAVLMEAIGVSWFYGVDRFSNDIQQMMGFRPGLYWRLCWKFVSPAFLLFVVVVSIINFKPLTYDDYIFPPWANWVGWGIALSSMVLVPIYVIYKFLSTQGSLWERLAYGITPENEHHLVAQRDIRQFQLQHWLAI

With `CC(/C=C1\SC(=S)N(CC(=O)O)C1=O)=C\c1ccccc1`, the AC50 (in general, the concentration at which the activity in the assay is half-maximal) is 20 µM in experiment [1]; 25 µM in experiment [2]; greater than 30 µM in experiment [3]; 15 µM in experiment [4]; greater than 30 µM in experiment [5]; 15 µM in experiment [6]. Also, the AC50 in experiment [7] is 13 µM; in experiment [8], greater than 30 µM.

Consider `CC1(C)S[C@@H]2[C@H](NC(=O)[C@H](N)c3ccc(O)cc3)C(=O)N2[C@H]1C(=O)O` [AMOXICILLIN], for which the concentration at half-maximal activity (AC50) in experiment [1], in experiment [2], in experiment [3], in experiment [4], in experiment [5] and in experiment [6] was greater than 30 µM in each case. For the same compound, the AC50 in experiment [7] and in experiment [8] was greater than 30 µM each time.

In the case of `CNCC[C@@H](Oc1ccccc1C)c1ccccc1` [ATOMOXETINE], the AC50 in experiment [1], in experiment [2], in experiment [5], in experiment [6] and in experiment [8] was greater than 30 µM throughout.

On to `CCc1oc2ccccc2c1C(=O)c1cc(Br)c(O)c(Br)c1` [BENZBROMARONE], for which the concentration at half-maximal activity (AC50) in experiment [1] is 4.19 µM; in experiment [2] it was 2.65 µM; in experiment [3], 3.74 µM; in experiment [4], greater than 30 µM; in experiment [5] it was greater than 30 µM; in experiment [6] it was greater than 30 µM. The AC50 in experiment [7] and in experiment [8] was greater than 30 µM throughout.

Take `Clc1cccc(Cl)c1N=C1NCCN1` [CLONIDINE]: the half-maximal activity concentration (AC50) in experiment [1] was greater than 30 µM; in experiment [4], greater than 10 µM; in experiment [5], greater than 30 µM; in experiment [6], greater than 30 µM; in experiment [7], greater than 30 µM.

In the case of `COC(=O)[C@H](c1ccccc1Cl)N1CCc2sccc2C1` [CLOPIDOGREL], the AC50 is greater than 30 µM in experiment [1]; greater than 30 µM in experiment [2]; 11 µM in experiment [3]; greater than 30 µM in experiment [4]; greater than 30 µM in experiment [5]; greater than 30 µM in experiment [6]. Further, the AC50 in experiment [7] and in experiment [8] was greater than 30 µM in each case.

On to `CN1C[C@H](C(=O)N[C@]2(C)O[C@@]3(O)[C@@H]4CCCN4C(=O)[C@H](Cc4ccccc4)N3C2=O)C[C@@H]2c3cccc4[nH]cc(c34)C[C@H]21` [DIHYDROERGOTAMINE], for which the AC50 is greater than 30 µM in experiment [1]; greater than 30 µM in experiment [4]; greater than 30 µM in experiment [5]; greater than 30 µM in experiment [6]; greater than 30 µM in experiment [7]; 1.7 µM in experiment [8].

Compound `Cn1c(=O)c2c(ncn2CC(O)CO)n(C)c1=O` (configuration not stated) [DYPHYLLINE] returned an AC50 in experiment [1] greater than 30 µM.

Take `CC1(C)O[C@@H]2C[C@H]3[C@@H]4C[C@H](F)C5=CC(=O)C=C[C@]5(C)[C@H]4[C@@H](O)C[C@]3(C)[C@]2(C(=O)CO)O1` [FLUNISOLIDE]: the AC50 was greater than 30 µM in experiment [1]; 0.048 µM in experiment [2]; 2 µM in experiment [3]; greater than 30 µM in experiment [4]; greater than 30 µM in experiment [5]; greater than 30 µM in experiment [6]. The AC50 in experiment [7] and in experiment [8] was greater than 30 µM in each case.

Turning to `Nc1nc(O)c2ncn(COC(CO)CO)c2n1` [GANCICLOVIR], the AC50 in experiment [1], in experiment [2], in experiment [3], in experiment [4], in experiment [5] and in experiment [6] was greater than 30 µM each time. The AC50 in experiment [7] and in experiment [8] was greater than 30 µM each time.

On to `Cc1cnc(NC(=O)C2=C(O)c3ccccc3S(=O)(=O)N2C)s1` [MELOXICAM], for which the half-maximal activity concentration (AC50) in experiment [1] was greater than 30 µM; in experiment [2], greater than 30 µM; in experiment [3], greater than 10 µM; in experiment [4], greater than 10 µM; in experiment [5] it was greater than 30 µM; in experiment [6], greater than 30 µM. For the same compound, the AC50 was greater than 10 µM in experiment [7] and greater than 30 µM in experiment [8].

With `CC[C@@H](CO)NC(=O)[C@@H]1C=C2c3cccc4[nH]cc(c34)C[C@H]2N(C)C1` [METHYLERGONOVINE], the AC50 in experiment [1] was greater than 30 µM; in experiment [3], 17 µM; in experiment [4] it was greater than 30 µM; in experiment [5], greater than 30 µM; in experiment [6] it was greater than 30 µM; in experiment [7] it was greater than 30 µM. For the same compound, the activity in experiment [8] was half-maximal at 0.02 µM (AC50).

Take `CNCCC=C1c2ccccc2CCc2ccccc21` [NORTRIPTYLINE]: the AC50 in experiment [1] was greater than 30 µM; in experiment [2], 0.036 µM; in experiment [5], 11 µM; in experiment [6], greater than 30 µM; in experiment [7] it was greater than 30 µM; in experiment [8], greater than 30 µM.

With `COc1ccnc(C[S+]([O-])c2nc3ccc(OC(F)F)cc3[nH]2)c1OC` (configuration not stated) [PANTOPRAZOLE], the AC50 is greater than 30 µM in experiment [2]; greater than 10 µM in experiment [3]; greater than 10 µM in experiment [4]; greater than 30 µM in experiment [5]; greater than 30 µM in experiment [6]; greater than 30 µM in experiment [7]. In experiment [8], the AC50 was greater than 30 µM.

In the case of `COc1ccc(Cc2nccc3cc(OC)c(OC)cc23)cc1OC` [PAPAVERINE], the AC50 in experiment [1], in experiment [2], in experiment [3], in experiment [4], in experiment [5] and in experiment [6] was greater than 30 µM in each case. The AC50 in experiment [7] and in experiment [8] was greater than 30 µM throughout.

`O=C1NC(=O)C(c2ccccc2)(c2ccccc2)N1` [PHENYTOIN]: the AC50 in experiment [1], in experiment [2], in experiment [3], in experiment [4], in experiment [5] and in experiment [6] was greater than 30 µM throughout. In addition, the half-maximal activity concentration (AC50) in experiment [7] and in experiment [8] was greater than 30 µM in each case.

For `NC(=O)c1ncn([C@@H]2O[C@H](CO)[C@@H](O)[C@H]2O)n1` [RIBAVIRIN], the AC50 was greater than 10 µM in experiment [1]; greater than 30 µM in experiment [2]; greater than 10 µM in experiment [3]; greater than 10 µM in experiment [4]; greater than 10 µM in experiment [5]; greater than 30 µM in experiment [7]. The AC50 in experiment [8] is greater than 30 µM.

With `Cn1c(=O)c2[nH]cnc2n(C)c1=O` [THEOPHYLLINE], the AC50 in experiment [2] is greater than 30 µM; in experiment [3], greater than 10 µM; in experiment [4], greater than 30 µM; in experiment [5], greater than 30 µM; in experiment [7], greater than 30 µM; in experiment [8], greater than 30 µM.
